In patent US10435405B2, “Pyrazolopyridine compounds and uses thereof” (Incyte Corporation, priority 2016, dated 2019):

Target: HPK1 (Homo sapiens (Human), UniProt Q92918)
Assay: HPK1 Kinase Binding Assay
Procedure: A stock solution of 1 mM test compound was prepared in DMSO. The compound plate was prepared by 3-fold and 11-point serial dilutions. 0.1 μL of the compound in DMSO was transferred from the compound plate to the white 384 well polystyrene plates. The assay buffer contained 50 mM HEPES, pH 7.5, 0.01% Tween-20, 5 mM MgCl2, 0.01% BSA, and 5 mM DTT. 5 μl of 4 nM active HPK1 (SignalChem M23-11G) prepared in the buffer was added to the plate. The enzyme concentration given was based on the given stock concentration reported by the vender. 5 μl of 18 nM tracer 222 (ThermoFisher PV6121) and 4 nM LanthaScreen Eu-Anti GST antibody (ThermoFisher PV5595) were added. After one hour incubation at 25° C., the plates were read on a PHERAstar FS plate reader (BMG Labtech). Ki values were determined.

HPK1, sequence (Q92918 1-346): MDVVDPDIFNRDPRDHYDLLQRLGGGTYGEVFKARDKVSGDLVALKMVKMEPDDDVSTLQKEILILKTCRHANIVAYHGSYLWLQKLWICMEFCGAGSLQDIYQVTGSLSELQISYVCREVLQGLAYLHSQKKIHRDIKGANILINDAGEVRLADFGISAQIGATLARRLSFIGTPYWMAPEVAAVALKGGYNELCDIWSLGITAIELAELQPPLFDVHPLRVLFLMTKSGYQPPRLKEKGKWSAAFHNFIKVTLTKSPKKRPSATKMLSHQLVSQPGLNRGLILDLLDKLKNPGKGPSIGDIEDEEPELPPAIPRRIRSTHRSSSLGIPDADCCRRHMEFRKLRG

SMILES	Ki [µM]
Cc1cc(NC(=O)CN2CCCC2)cc(F)c1-c1cc2c(-c3cnn(C)c3)n[nH]c2cn1 [Example 80, N-(3-Fluoro-5-methyl-4-(3-(1-methyl-1H-pyrazol-4-yl)-1H-pyrazolo[3,4-c]pyridin-5-yl)phenyl)-2-(pyrrolidin-1-yl)acetamide]	≤ 0.1
CCn1cc(-c2n[nH]c3cnc(-c4c(C)cc(CNC)cc4F)cc23)cn1 [Example 133, 1-(4-(3-(1-Ethyl-1H-pyrazol-4-yl)-1H-pyrazolo[3,4-c]pyridin-5-yl)-3-fluoro-5-methylphenyl)-N-methylmethanamine]	≤ 0.1
CNC(=O)c1ccc(-c2n[nH]c3cnc(-c4c(F)cc5c(c4F)CCCC5NC)cc23)cc1 (centres unmarked) [Example 201, 4-(5-(1,3-Difluoro-5-(methylamino)-5,6,7,8-tetrahydronaphthalen-2-yl)-1H-pyrazolo[3,4-c]pyridin-3-yl)-N-methylbenzamide]	≤ 0.1
COCCNC(=O)Nc1cc(F)c(-c2cc3c(-c4cnn(C)c4)n[nH]c3cn2)c(F)c1 [Example 71, 1-(3,5-Difluoro-4-(3-(1-methyl-1H-pyrazol-4-yl)-1H-pyrazolo[3,4-c]pyridin-5-yl)phenyl)-3-(2-methoxyethyl)urea]	≤ 0.1
CNC(C)c1cc(C)c(-c2cc3c(-c4cnn(C)c4)n[nH]c3cn2)c(F)c1 (single isomer, unassigned) [Example 189, 1-(3-Fluoro-5-methyl-4-(3-(1-methyl-1H-pyrazol-4-yl)-1H-pyrazolo[3,4-c]pyridin-5-yl)phenyl)-N-methylethanamine]	≤ 0.1
CC(C)NC1CC(c2cc(F)c(-c3cc4c(-c5cnn(C)c5)n[nH]c4cn3)c(F)c2)C1 (centres unmarked) [Example 95, 3-(3,5-Difluoro-4-(3-(1-methyl-1H-pyrazol-4-yl)-1H-pyrazolo[3,4-c]pyridin-5-yl)phenyl)-N-isopropylcyclobutanamine]	≤ 0.1
Cc1cc(NC(=O)CN2C[C@H]3CC[C@@H]2C3)ccc1-c1cc2c(-c3cnn(C)c3)n[nH]c2cn1 [Example 79, 2-((1R,4S)-2-Azabicyclo[2.2.1]heptan-2-yl)-N-(3-methyl-4-(3-(1-methyl-1H-pyrazol-4-yl)-1H-pyrazolo[3,4-c]pyridin-5-yl)phenyl)acetamide]	≤ 0.1
CCNCc1cccc(-c2cc3c(-c4cnn(C)c4)n[nH]c3cn2)c1C(F)(F)F [Example 237, N-(3-(3-(1-Methyl-1H-pyrazol-4-yl)-1H-pyrazolo[3,4-c]pyridin-5-yl)-2-(trifluoromethyl)benzyl)ethanamine]	≤ 0.1
Cc1cc(CNCCO)cc(F)c1-c1cc2c(-c3cnn(C)c3)n[nH]c2cn1 [Example 180, 2-(3-Fluoro-5-methyl-4-(3-(1-methyl-1H-pyrazol-4-yl)-1H-pyrazolo[3,4-c]pyridin-5-yl)benzylamino)ethanol]	≤ 0.1
CN(C)c1cc(F)c(-c2cc3c(-c4cnn(C)c4)n[nH]c3cn2)c(F)c1 [Example 63, 3,5-Difluoro-N,N-dimethyl-4-(3-(1-methyl-1H-pyrazol-4-yl)-1H-pyrazolo[3,4-c]pyridin-5-yl)aniline]	≤ 0.1
Cn1cc(-c2n[nH]c3cnc(-c4c(F)ccc(NC(=O)C5CCC5)c4F)cc23)cn1 [Example 59, N-(2,4-Difluoro-3-(3-(1-methyl-1H-pyrazol-4-yl)-1H-pyrazolo[3,4-c]pyridin-5-yl)phenyl)cyclobutanecarboxamide]	≤ 0.1
Cn1cc(-c2n[nH]c3cnc(-c4c(F)cc(NC(=O)CN5CCC5)c(F)c4F)cc23)cn1 [Example 77, 2-(Azetidin-1-yl)-N-(2,3,5-trifluoro-4-(3-(1-methyl-1H-pyrazol-4-yl)-1H-pyrazolo[3,4-c]pyridin-5-yl)phenyl)acetamide]	≤ 0.1
CNCc1cc(C)c(-c2cc3c(-c4ccc(N5CCC(O)C5)nc4)n[nH]c3cn2)c(F)c1 (centres unmarked) [Example 113, 1-(5-(5-(2-Fluoro-6-methyl-4-((methylamino)methyl)phenyl)-1H-pyrazolo[3,4-c]pyridin-3-yl)pyridin-2-yl)pyrrolidin-3-ol]	≤ 0.1
Cc1c(CNC(C)C)ccc(F)c1-c1cc2c(-c3cnn(C)c3)n[nH]c2cn1 [Example 93, N-(4-Fluoro-2-methyl-3-(3-(1-methyl-1H-pyrazol-4-yl)-1H-pyrazolo[3,4-c]pyridin-5-yl)benzyl)propan-2-amine]	≤ 0.1
CNC(=O)c1ccc(-c2n[nH]c3cnc(-c4c(C)cc(C5CCCN5)cc4F)cc23)cc1 (centres unmarked) [Example 170, 4-(5-(2-Fluoro-6-methyl-4-(pyrrolidin-2-yl)phenyl)-1H-pyrazolo[3,4-c]pyridin-3-yl)-N-methylbenzamide]	≤ 0.1
Cc1cc(NC(=O)CCN(C)C)cc(F)c1-c1cc2c(-c3cnn(C)c3)n[nH]c2cn1 [Example 84, 3-(Dimethylamino)-N-(3-fluoro-5-methyl-4-(3-(1-methyl-1H-pyrazol-4-yl)-1H-pyrazolo[3,4-c]pyridin-5-yl)phenyl)propanamide]	≤ 0.1
CCNCc1ccc(F)c(-c2cc3c(-c4cnn(C)c4)n[nH]c3cn2)c1OC [Example 139, N-(4-Fluoro-2-methoxy-3-(3-(1-methyl-1H-pyrazol-4-yl)-1H-pyrazolo[3,4-c]pyridin-5-yl)benzyl)ethanamine]	≤ 0.1
CNCc1cc(F)c(-c2cc3c(-c4cnn(CCO)c4)n[nH]c3cn2)c(F)c1 [Example 164, 2-(4-(5-(2,6-Difluoro-4-((methylamino)methyl)phenyl)-1H-pyrazolo[3,4-c]pyridin-3-yl)-1H-pyrazol-1-yl)ethanol]	≤ 0.1
COc1cc(NC(=O)CN2CC(C)(C)C2)cc(F)c1-c1cc2c(-c3cnn(C)c3)n[nH]c2cn1 [Example 75, 2-(3,3-Dimethylazetidin-1-yl)-N-(3-fluoro-5-methoxy-4-(3-(1-methyl-1H-pyrazol-4-yl)-1H-pyrazolo[3,4-c]pyridin-5-yl)phenyl)acetamide]	≤ 0.1

Other lines, results leading:

Ki [µM]	SMILES
≤ 0.1	CC(C)NCc1cc(F)c(-c2cc3c(NC(=O)c4cccc(N5CCN(C)CC5)c4F)n[nH]c3cn2)c(F)c1 [Example 150, N-(5-(2,6-Difluoro-4-((isopropylamino)methyl)phenyl)-1H-pyrazolo[3,4-c]pyridin-3-yl)-2-fluoro-3-(4-methylpiperazin-1-yl)benzamide]
≤ 0.1	COc1cccc(F)c1-c1cc2c(NC(=O)c3ccc(N4CCN(S(C)(=O)=O)CC4)cc3)n[nH]c2cn1 [Example 32, N-(5-(2-Fluoro-6-methoxyphenyl)-1H-pyrazolo[3,4-c]pyridin-3-yl)-4-(4-(methylsulfonyl)piperazin-1-yl)benzamide]
≤ 0.1	CN1CCN(c2ccc(C(=O)Nc3n[nH]c4cnc(-c5c(F)cc(CN6CCCC6)cc5F)cc34)cc2)CC1 [Example 141, N-(5-(2,6-Difluoro-4-(pyrrolidin-1-ylmethyl)phenyl)-1H-pyrazolo[3,4-c]pyridin-3-yl)-4-(4-methylpiperazin-1-yl)benzamide]
≤ 0.1	COc1cccc(F)c1-c1cc2c(NC(=O)c3ccc(N4CCN(C(C)C)CC4)cc3)n[nH]c2cn1 [Example 30, N-(5-(2-Fluoro-6-methoxyphenyl)-1H-pyrazolo[3,4-c]pyridin-3-yl)-4-(4-isopropylpiperazin-1-yl)benzamide]
≤ 0.1	COc1cccc(F)c1-c1cc2c(NC(=O)c3ccc(N4CCN(C5CC5)C(=O)C4)cc3)n[nH]c2cn1 [Example 31, 4-(4-Cyclopropyl-3-oxopiperazin-1-yl)-N-(5-(2-fluoro-6-methoxyphenyl)-1H-pyrazolo[3,4-c]pyridin-3-yl)benzamide]
≤ 0.1	COc1cccc(F)c1-c1cc2c(N3CCN(c4ccncc4)CC3)n[nH]c2cn1 [Example 40, 5-(2-Fluoro-6-methoxyphenyl)-3-(4-(pyridin-4-yl)piperazin-1-yl)-1H-pyrazolo[3,4-c]pyridine]
≤ 0.1	Cc1cccc(F)c1-c1cc2c(NC(=O)c3ccc(N4CCN(C)CC4)cc3NC3CCC(C#N)C3)n[nH]c2cn1 (centres unmarked) [Example 160, 2-(3-Cyanocyclopentylamino)-N-(5-(2-fluoro-6-methylphenyl)-1H-pyrazolo[3,4-c]pyridin-3-yl)-4-(4-methylpiperazin-1-yl)benzamide]
≤ 0.1	COc1cccc(F)c1-c1cc2c(NC(=O)c3cccc(N4CCN(C)CC4)c3)n[nH]c2cn1 [Example 18, N-(5-(2-Fluoro-6-methoxyphenyl)-1H-pyrazolo[3,4-c]pyridin-3-yl)-3-(4-methylpiperazin-1-yl)benzamide]
≤ 0.1	COc1cccc(F)c1-c1cc2c(NC(=O)c3ccc(F)c(C)c3)n[nH]c2cn1 [Example 10, 4-Fluoro-N-(5-(2-fluoro-6-methoxyphenyl)-1H-pyrazolo[3,4-c]pyridin-3-yl)-3-methylbenzamide]
≤ 0.1	CN1CCN(c2ccc(-c3n[nH]c4cnc(-c5c(F)cc6c(c5F)CCCC6N)cc34)cn2)CC1 (centres unmarked) [Example 203, 5,7-Difluoro-6-(3-(6-(4-methylpiperazin-1-yl)pyridin-3-yl)-1H-pyrazolo[3,4-c]pyridin-5-yl)-1,2,3,4-tetrahydronaphthalen-1-amine]
≤ 0.1	CNC1CCc2c1cc(F)c(-c1cc3c(-c4ccc(N5CCN(C)CC5)cc4)n[nH]c3cn1)c2F (centres unmarked) [Example 197, 4,6-Difluoro-N-methyl-5-(3-(4-(4-methylpiperazin-1-yl)phenyl)-1H-pyrazolo[3,4-c]pyridin-5-yl)-2,3-dihydro-1H-inden-1-amine]
≤ 0.1	COc1cccc(C(=O)Nc2n[nH]c3cnc(-c4c(F)cc(CNC(C)C)cc4F)cc23)c1 [Example 146, N-(5-(2,6-Difluoro-4-((isopropylamino)methyl)phenyl)-1H-pyrazolo[3,4-c]pyridin-3-yl)-3-methoxybenzamide]
≤ 0.1	COc1cccc(C(=O)Nc2n[nH]c3cnc(-c4c(F)cccc4OC)cc23)c1 [Example 9, N-(5-(2-Fluoro-6-methoxyphenyl)-1H-pyrazolo[3,4-c]pyridin-3-yl)-3-methoxybenzamide]
